# Source: ChEMBL document CHEMBL4346677, “Compounds based on 5-(perylen-3-ylethynyl)uracil scaffold: High activity against tick-borne encephalitis virus and non-specific activity against enterovirus A” (Eur J Med Chem, 2019)
# Active and inactive are the calls of the source. The rule behind the calls is not given here.
# Tested on: RD
# Test: Cytotoxicity against human RD cells assessed as formation of syncytium-like patterns of cells at 50 uM after 7 days by microscopic method
# Type: cell-based
# Conditions: 168 h
row,Compound,Activity
1,O=C(O)Cn1cc(C#Cc2ccc3c4cccc5cccc(c6cccc2c63)c54)c(=O)[nH]c1=O,Toxic
2,CC(C)(C)C(=O)OCn1c(=O)c(C#Cc2ccc3c4cccc5cccc(c6cccc2c63)c54)cn(CC(=O)NCCCCCO)c1=O,Toxic
3,CC(C)(C)C(=O)OCn1c(=O)c(C#Cc2ccc3c4cccc5cccc(c6cccc2c63)c54)cn(CC(=O)NCCCCO)c1=O,Toxic
4,O=C(Cn1cc(C#Cc2ccc3c4cccc5cccc(c6cccc2c63)c54)c(=O)[nH]c1=O)NCCCO,Toxic

# Tested on: Echovirus
# Test: Antiviral activity against Echovirus 30 isolate 48461
# Type: functional, organism-based
# Conditions: not given
row,Compound,Activity
1,O=C(O)Cn1cc(C#Cc2ccc3c4cccc5cccc(c6cccc2c63)c54)c(=O)[nH]c1=O,inactive
2,CC(C)(C)C(=O)OCn1c(=O)c(C#Cc2ccc3c4cccc5cccc(c6cccc2c63)c54)cn(CC(=O)NCCCCCO)c1=O,inactive
3,CC(C)(C)C(=O)OCn1c(=O)c(C#Cc2ccc3c4cccc5cccc(c6cccc2c63)c54)cn(CC(=O)NCCCCO)c1=O,inactive
4,O=C(Cn1cc(C#Cc2ccc3c4cccc5cccc(c6cccc2c63)c54)c(=O)[nH]c1=O)NCCCO,inactive

# Tested on: Poliovirus 1
# Test: Antiviral activity against poliovirus type 1 sabin 1
# Type: functional, organism-based
# Conditions: not given
row,Compound,Activity
1,O=C(O)Cn1cc(C#Cc2ccc3c4cccc5cccc(c6cccc2c63)c54)c(=O)[nH]c1=O,inactive
2,CC(C)(C)C(=O)OCn1c(=O)c(C#Cc2ccc3c4cccc5cccc(c6cccc2c63)c54)cn(CC(=O)NCCCCCO)c1=O,inactive
3,CC(C)(C)C(=O)OCn1c(=O)c(C#Cc2ccc3c4cccc5cccc(c6cccc2c63)c54)cn(CC(=O)NCCCCO)c1=O,inactive
4,O=C(Cn1cc(C#Cc2ccc3c4cccc5cccc(c6cccc2c63)c54)c(=O)[nH]c1=O)NCCCO,inactive

# Tested on: not listed separately
# Test: Cytotoxicity against PEK cells assessed as formation of syncytium-like patterns of cells at 50 uM after 7 days by microscopic method
# Type: cell-based, Sus scrofa
# Conditions: pig, 168 h
row,Compound,Activity
1,O=C(O)Cn1cc(C#Cc2ccc3c4cccc5cccc(c6cccc2c63)c54)c(=O)[nH]c1=O,Toxic
2,CC(C)(C)C(=O)OCn1c(=O)c(C#Cc2ccc3c4cccc5cccc(c6cccc2c63)c54)cn(CC(=O)NCCCCCO)c1=O,Toxic
3,CC(C)(C)C(=O)OCn1c(=O)c(C#Cc2ccc3c4cccc5cccc(c6cccc2c63)c54)cn(CC(=O)NCCCCO)c1=O,Toxic
4,O=C(Cn1cc(C#Cc2ccc3c4cccc5cccc(c6cccc2c63)c54)c(=O)[nH]c1=O)NCCCO,Toxic

# Tested on: not listed separately
# Test: Cytotoxicity against PEK cells assessed as reduction in cell viability after 24 hrs by microscopic method
# Type: cell-based, Sus scrofa
# Conditions: pig
row,Compound,CC50 at 24 h
1,O=C(O)Cn1cc(C#Cc2ccc3c4cccc5cccc(c6cccc2c63)c54)c(=O)[nH]c1=O,> 50 µM
2,CC(C)(C)C(=O)OCn1c(=O)c(C#Cc2ccc3c4cccc5cccc(c6cccc2c63)c54)cn(CC(=O)NCCCCCO)c1=O,> 50 µM
3,CC(C)(C)C(=O)OCn1c(=O)c(C#Cc2ccc3c4cccc5cccc(c6cccc2c63)c54)cn(CC(=O)NCCCCO)c1=O,> 50 µM
4,O=C(Cn1cc(C#Cc2ccc3c4cccc5cccc(c6cccc2c63)c54)c(=O)[nH]c1=O)NCCCO,> 50 µM

# Tested on: not listed separately
# Test: Cytotoxicity against human RD cells assessed as reduction in cell viability after 7 days by microscopic method
# Type: cell-based
# Conditions: not given
row,Compound,CC50 at 168 h
1,O=C(O)Cn1cc(C#Cc2ccc3c4cccc5cccc(c6cccc2c63)c54)c(=O)[nH]c1=O,65 µM
2,CC(C)(C)C(=O)OCn1c(=O)c(C#Cc2ccc3c4cccc5cccc(c6cccc2c63)c54)cn(CC(=O)NCCCCCO)c1=O,10 µM
3,CC(C)(C)C(=O)OCn1c(=O)c(C#Cc2ccc3c4cccc5cccc(c6cccc2c63)c54)cn(CC(=O)NCCCCO)c1=O,38 µM
4,O=C(Cn1cc(C#Cc2ccc3c4cccc5cccc(c6cccc2c63)c54)c(=O)[nH]c1=O)NCCCO,> 104 µM

# Tested on: Vero
# Test: Cytotoxicity against African green monkey Vero cells assessed as formation of syncytium-like patterns of cells at 50 uM after 7 days by microscopic method
# Type: cell-based
# Conditions: chlorocebus sabaeus, 168 h
row,Compound,Activity
1,O=C(O)Cn1cc(C#Cc2ccc3c4cccc5cccc(c6cccc2c63)c54)c(=O)[nH]c1=O,Toxic
2,CC(C)(C)C(=O)OCn1c(=O)c(C#Cc2ccc3c4cccc5cccc(c6cccc2c63)c54)cn(CC(=O)NCCCCCO)c1=O,Toxic
3,CC(C)(C)C(=O)OCn1c(=O)c(C#Cc2ccc3c4cccc5cccc(c6cccc2c63)c54)cn(CC(=O)NCCCCO)c1=O,Toxic
4,O=C(Cn1cc(C#Cc2ccc3c4cccc5cccc(c6cccc2c63)c54)c(=O)[nH]c1=O)NCCCO,Toxic

# Tested on: not listed separately
# Test: Cytotoxicity against PEK cells assessed as reduction in cell viability after 7 days by microscopic method
# Type: cell-based, Sus scrofa
# Conditions: pig
row,Compound,CC50 at 168 h
1,O=C(O)Cn1cc(C#Cc2ccc3c4cccc5cccc(c6cccc2c63)c54)c(=O)[nH]c1=O,> 50 µM
2,CC(C)(C)C(=O)OCn1c(=O)c(C#Cc2ccc3c4cccc5cccc(c6cccc2c63)c54)cn(CC(=O)NCCCCCO)c1=O,> 50 µM
3,CC(C)(C)C(=O)OCn1c(=O)c(C#Cc2ccc3c4cccc5cccc(c6cccc2c63)c54)cn(CC(=O)NCCCCO)c1=O,> 50 µM
4,O=C(Cn1cc(C#Cc2ccc3c4cccc5cccc(c6cccc2c63)c54)c(=O)[nH]c1=O)NCCCO,> 50 µM

# Tested on: not listed separately
# Test: Solubility of compound in 15% DMSO by spectrophotometric analysis
# Type: physicochemical
# Conditions: not given
row,Compound,solubility
1,CC(C)(C)C(=O)OCn1c(=O)c(C#Cc2ccc3c4cccc5cccc(c6cccc2c63)c54)cn(CC(=O)NCCCCO)c1=O,5.3 µM

# Tested on: not listed separately
# Test: Cytotoxicity against African green monkey Vero cells assessed as reduction in cell viability after 7 days by microscopic method
# Type: cell-based
# Conditions: chlorocebus sabaeus
row,Compound,CC50 at 168 h
1,O=C(O)Cn1cc(C#Cc2ccc3c4cccc5cccc(c6cccc2c63)c54)c(=O)[nH]c1=O,> 50 µM
2,CC(C)(C)C(=O)OCn1c(=O)c(C#Cc2ccc3c4cccc5cccc(c6cccc2c63)c54)cn(CC(=O)NCCCCCO)c1=O,> 50 µM
3,CC(C)(C)C(=O)OCn1c(=O)c(C#Cc2ccc3c4cccc5cccc(c6cccc2c63)c54)cn(CC(=O)NCCCCO)c1=O,> 50 µM
4,O=C(Cn1cc(C#Cc2ccc3c4cccc5cccc(c6cccc2c63)c54)c(=O)[nH]c1=O)NCCCO,> 50 µM

# Tested on: not listed separately
# Test: Cytotoxicity against African green monkey Vero cells assessed as reduction in cell viability after 24 hrs by microscopic method
# Type: cell-based
# Conditions: chlorocebus sabaeus
row,Compound,CC50 at 24 h
1,O=C(O)Cn1cc(C#Cc2ccc3c4cccc5cccc(c6cccc2c63)c54)c(=O)[nH]c1=O,> 50 µM
2,CC(C)(C)C(=O)OCn1c(=O)c(C#Cc2ccc3c4cccc5cccc(c6cccc2c63)c54)cn(CC(=O)NCCCCCO)c1=O,32 µM
3,CC(C)(C)C(=O)OCn1c(=O)c(C#Cc2ccc3c4cccc5cccc(c6cccc2c63)c54)cn(CC(=O)NCCCCO)c1=O,> 50 µM
4,O=C(Cn1cc(C#Cc2ccc3c4cccc5cccc(c6cccc2c63)c54)c(=O)[nH]c1=O)NCCCO,> 50 µM

# Tested on: not listed separately
# Test: Cytotoxicity against human RD cells assessed as reduction in cell viability after 24 hrs by microscopic method
# Type: cell-based
# Conditions: not given
row,Compound,CC50 at 24 h
1,O=C(O)Cn1cc(C#Cc2ccc3c4cccc5cccc(c6cccc2c63)c54)c(=O)[nH]c1=O,61 µM
2,CC(C)(C)C(=O)OCn1c(=O)c(C#Cc2ccc3c4cccc5cccc(c6cccc2c63)c54)cn(CC(=O)NCCCCCO)c1=O,19 µM
3,CC(C)(C)C(=O)OCn1c(=O)c(C#Cc2ccc3c4cccc5cccc(c6cccc2c63)c54)cn(CC(=O)NCCCCO)c1=O,19 µM
4,O=C(Cn1cc(C#Cc2ccc3c4cccc5cccc(c6cccc2c63)c54)c(=O)[nH]c1=O)NCCCO,> 104 µM

# Tested on: Enterovirus A71
# Test: Antiviral activity against Enterovirus A71 isolate 46973 infected in human RD cells assessed as reduction in virus induced cytopathic effect preincubated with viral suspension for 1 hr followed by cell addition measured after 5 to 7 days
# Type: functional, organism-based
# Conditions: not given
row,Compound,EC50
1,O=C(O)Cn1cc(C#Cc2ccc3c4cccc5cccc(c6cccc2c63)c54)c(=O)[nH]c1=O,Not Active
2,CC(C)(C)C(=O)OCn1c(=O)c(C#Cc2ccc3c4cccc5cccc(c6cccc2c63)c54)cn(CC(=O)NCCCCCO)c1=O,Not Active
3,CC(C)(C)C(=O)OCn1c(=O)c(C#Cc2ccc3c4cccc5cccc(c6cccc2c63)c54)cn(CC(=O)NCCCCO)c1=O,Not Active
4,O=C(Cn1cc(C#Cc2ccc3c4cccc5cccc(c6cccc2c63)c54)c(=O)[nH]c1=O)NCCCO,Not Active

# Tested on: Tick-borne encephalitis virus
# Test: Antiviral activity against TBEV Absettarov infected in PEK cells assessed as plaque reduction preincubated for 1 hr followed by overlaying with 1.26% methylcellulose and measured after 6 days by gentian violet staining-based assay
# Type: functional, organism-based
# Conditions: not given
row,Compound,EC50
1,O=C(O)Cn1cc(C#Cc2ccc3c4cccc5cccc(c6cccc2c63)c54)c(=O)[nH]c1=O,0.05 µM
2,CC(C)(C)C(=O)OCn1c(=O)c(C#Cc2ccc3c4cccc5cccc(c6cccc2c63)c54)cn(CC(=O)NCCCCCO)c1=O,0.0016 µM
3,CC(C)(C)C(=O)OCn1c(=O)c(C#Cc2ccc3c4cccc5cccc(c6cccc2c63)c54)cn(CC(=O)NCCCCO)c1=O,0.00069 µM
4,O=C(Cn1cc(C#Cc2ccc3c4cccc5cccc(c6cccc2c63)c54)c(=O)[nH]c1=O)NCCCO,0.006 µM
